Experimental data: US20240082406A1, “BENZOHETEROCYCLE SUBSTITUTED TETRAHYDROISOQUINOLINE COMPOUND” (SHANGHAI JEMINCARE PHARMACEUTICAL CO., LTD, priority 2020, published 2024)
Where a name gives a salt, the structure may show the parent alone.

Columns and labels:
NHE3 [1] = biological target: T1, NHE3 (UniProt P48764); test: Cell-based NHE3 activity under persistent conditions (60 min pre-incubation, compound removed); parameters: species or system Rat or Human; conditions: opossum kidney cells expressing NHE3, read-out: Cell-based NHE3 inhibition IC50 (uM) under persistent conditions
T1 sequence (P48764 1-834): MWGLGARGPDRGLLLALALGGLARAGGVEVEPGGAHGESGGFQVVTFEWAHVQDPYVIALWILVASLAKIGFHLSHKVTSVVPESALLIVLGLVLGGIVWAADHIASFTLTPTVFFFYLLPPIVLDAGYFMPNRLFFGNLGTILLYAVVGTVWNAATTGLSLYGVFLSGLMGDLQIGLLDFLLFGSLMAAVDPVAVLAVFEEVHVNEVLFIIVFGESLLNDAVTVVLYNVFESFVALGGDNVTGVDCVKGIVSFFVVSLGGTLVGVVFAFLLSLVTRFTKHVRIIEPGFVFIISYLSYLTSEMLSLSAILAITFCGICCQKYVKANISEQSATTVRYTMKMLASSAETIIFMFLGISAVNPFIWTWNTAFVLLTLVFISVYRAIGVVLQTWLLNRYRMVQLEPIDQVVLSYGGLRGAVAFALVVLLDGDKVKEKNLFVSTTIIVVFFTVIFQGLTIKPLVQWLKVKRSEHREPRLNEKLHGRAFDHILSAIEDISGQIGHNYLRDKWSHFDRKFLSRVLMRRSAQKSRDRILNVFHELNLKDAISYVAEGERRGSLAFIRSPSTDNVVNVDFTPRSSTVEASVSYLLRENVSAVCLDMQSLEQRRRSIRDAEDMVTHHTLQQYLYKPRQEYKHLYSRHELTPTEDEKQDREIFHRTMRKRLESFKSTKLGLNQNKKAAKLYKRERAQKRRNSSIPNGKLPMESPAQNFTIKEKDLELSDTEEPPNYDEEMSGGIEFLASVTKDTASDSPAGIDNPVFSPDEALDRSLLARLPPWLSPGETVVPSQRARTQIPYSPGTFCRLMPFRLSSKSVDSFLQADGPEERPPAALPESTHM
Excerpt: (§1) Opossum kidney (OK) cells were obtained from ATCC and cultured and expanded according to its instructions. OK monoclonal stable cell lines expressing the Rat NHE3 (Gene Bank registration number: M85300) protein and OK monoclonal stable cell lines expressing the Human NHE3 (Gene Bank registration number: NM_004174.1) protein were constructed by lentivirus infection.
The general procedure of the cell-based NHE3 activity assay under persistent conditions (persistent inhibition) was: Rat NHE3 OK monoclonal cells or Human NHE3 OK monoclonal cells were inoculated into 384-well plates and grew overnight. The medium was aspirated from the wells and the cells were washed twice with FLIPR buffer (Hank's BSS 1×, 20 mM HEPES, 1% BSA) followed by the addition of Na-HEPES buffer containing […] test compound (100 mM NaCl, 50 mM HEPES, 10 mM glucose, 5 mM KCl, 2 mM CaCl2, 1 mM MgCl2, pH 7.4) and incubated for 60 minutes at room temperature. The compounds were aspirated from the wells and incubated with FLIPR buffer (Hank's BSS 1×, 20 mM HEPES, 1% BSA) containing […] BCECF-AM (Invitrogen) for 45 minutes at room temperature. Subsequently, […] of 200 mM NH4Cl-HEPES buffer (Hank's BSS 1×, 20 mM HEPES, 200 mM NH4Cl) was added and incubated for 15-20 minutes at room temperature. The cells were washed twice with 20 mM NH4Cl-HEPES buffer (Hank's BSS 1×, 20 mM HEPES, 20 mM […]). […] Ratio=fluorescence value (λex 490 nm)/fluorescence value (λex 440 nm) was set, the average value of the Ratio difference between the end time and the start time between the duplicate wells was calculated, the average value and the concentration value of the compound were drawn, and the dose-response-inhibition (four parameters) equation was used to estimate EC50 value by GraphpadPrism.

NHE3 [2] = biological target: T1, NHE3; test: Cell-based NHE3 activity under transient conditions (BCECF-AM intracellular pH, FLIPR); parameters: species or system Rat or Human; conditions: embodiment compounds, opossum kidney cells expressing NHE3, read-out: Cell-based NHE3 inhibition IC50 (uM) under transient conditions
Excerpt: as §1
The general procedure of the cell-based NHE3 activity experiments under transient conditions (transient inhibition) was based on an adaptation method of the pH-sensitive dye method originally reported by Tisen (Proc. Natl. Acad. Sci. USA) (1984) 81(23):7436-7440) to measure rat NHE3-mediated Na+-dependent reverse H+ transport, and was optimized according to the instructions “Measuring Intracellular pH With the FLIPR and FLIPR 384 Fluorometric Imaging Plate Reader Systems” published by Molecular Devices. The specific method was: Rat NHE3 OK monoclonal cells or Human NHE3 OK monoclonal cells were inoculated into 384-well plates and grew overnight. The medium was aspirated from the wells and the cells were washed twice with FLIPR buffer (Hank's BSS 1×, 20 mM HEPES, 1% BSA) followed by incubation with FLIPR buffer (Hank's BSS 1×, 20 mM HEPES, 1% BSA) containing […] BCECF-AM (Invitrogen) for 45 min at room temperature. Subsequently, […] of 200 mM NH4Cl-HEPES buffer (Hank's BSS 1×, 20 mM HEPES, 200 mM NH4Cl) was added and the cells were incubated for 15-20 minutes at room temperature. Cells were washed twice with 20 mM NH4Cl-HEPES buffer (Hank's BSS 1×, 20 mM HEPES, 20 mM NH4Cl). NHE3-mediated pH sensitization in cells was normalized by addition of containing 0.4 mM amiloride (EIPA) and […] test compound or Na-HEPES buffer (100 mM NaCl, 50 mM HEPES, 10 mM glucose, 5 mM KCl, 2 mM CaCl2), 1 mM MgCl2, pH 7.4) and monitoring of BCECF-AM fluorescence at λem 535 nm excitated by λex 440 nm and λex 490 nm respectively. Ratio=fluorescence value (λex 490 nm)/fluorescence value (λex 440 nm) was set, the average value of the Ratio difference between the end time and the start time between the duplicate wells was calculated, the average value and the concentration value of the compound were drawn, and Graphpad Prism software was used to estimate IC50 value.

| Compound | IC50 (NHE3 [1]) | IC50 (NHE3 [2]) |
| --- | --- | --- |
| CN1Cc2c(Cl)cc(Cl)cc2C(c2ccc3cnn(CCOCCOCCNC(=O)NCCCCNC(=O)NCCOCCOCCn4ncc5ccc(C6CN(C)Cc7c(Cl)cc(Cl)cc76)cc54)c3c2)C1 (centres unmarked) [Embodiment D1-P2] | 3.61 µM | 2.33 µM |
| CN1Cc2c(Cl)cc(Cl)cc2C(c2ccc3c(c2)C(=O)N(CCOCCOCCNC(=O)NC2CCC(NC(=O)NCCOCCOCCN4Cc5ccc(C6CN(C)Cc7c(Cl)cc(Cl)cc76)cc5C4=O)CC2)C3)C1 (centres unmarked) [Embodiment H1] | 0.04 µM | 0.91 µM |
| CN1Cc2c(Cl)cc(Cl)cc2C(c2ccc3c(c2)C(=O)N(CCOCCOCCOCCNC(=O)COCC(=O)NCCOCCOCCOCCN2Cc4ccc(C5CN(C)Cc6c(Cl)cc(Cl)cc65)cc4C2=O)C3)C1 (centres unmarked) [Embodiment J1] | 0.03 µM | 0.43 µM |
| CN1Cc2c(Cl)cc(Cl)cc2C(c2ccc3c(c2)C(=O)N(CCOCCOCCOCCNC(=O)NCCCCNC(=O)NCCOCCOCCCN2Cc4ccc(C5CCCc6ccc(Cl)cc65)cc4C2=O)C3)C1 (centres unmarked) [Embodiment B6] | 0.04 µM | 1.05 µM |

Continued by falling IC50 (NHE3 [1]), values first:

| IC50 (NHE3 [1]) | IC50 (NHE3 [2]) | Compound |
| --- | --- | --- |
| 0.57 µM | 0.23 µM | CN1Cc2c(Cl)cc(Cl)cc2C(c2ccc3ccn(CCOCCOCCNC(=O)NCCCCNC(=O)NCCOCCOCCn4ccc5ccc(C6CN(C)Cc7c(Cl)cc(Cl)cc76)cc5c4=O)c(=O)c3c2)C1 (centres unmarked) [Embodiment B5] |
| 0.12 µM | 0.27 µM | CN1Cc2c(Cl)cc(Cl)cc2C(c2ccc3cnn(CCOCCOCCOCCNC(=O)NCCCCNC(=O)NCCOCCOCCOCCn4ncc5ccc(C6CN(C)Cc7c(Cl)cc(Cl)cc76)cc54)c3c2)C1 (centres unmarked) [Embodiment D2-P2 hydrochloride salt] |
| 0.06 µM | 0.48 µM | CN1Cc2c(Cl)cc(Cl)cc2C(c2ccc3c(c2)C(=O)N(CCOCCOCCNC(=O)Nc2ccc(NC(=O)NCCOCCOCCN4Cc5ccc(C6CN(C)Cc7c(Cl)cc(Cl)cc76)cc5C4=O)cc2)C3)C1 (centres unmarked) [Embodiment H2] |
